For the test, the target named is Polθ theta (1-899) (hPolQ) (Homo sapiens (Human), UniProt O75417). Nature of the test: Biological Assay 1: Polθ ATPase activity, NADH oxidation-coupled enzymatic assay (10 nM enzyme, 30 min). The settings on record: Polθ (1-899) 10 nM, 100 μM ATP, 300 nM dT50 ssDNA; Examples 1 to 268; read-out: ATPase NADH coupling:Standard Screening:hPolQ IC50. The class given is biochemical. As for the experimental part: The ability of the compounds of Formula (I), (II), (III), (IV), or Table 1 (Examples 1 to Example 268) to inhibit ATPase activity of Polθ theta (1-899) was determined using the assay described below.
Polθ Theta ATPase activity was determined by measuring the rate of ATP turn over in a NADH oxidation-coupled enzymatic assay. 10-point dilution series of compounds were used in a 384 well format for the inhibition assays. Polθ theta (1-899) (10 nM) in assay buffer (20 mM Tris HCl (pH 7.80), 80 mM KCl, 10 mM MgCl2, 1 mM DTT, 0.01% BSA, 0.01% Tween, 5% glycerol) was transferred to the test wells (20 μL), except the low control wells (20 μL of assay buffer was added to the low control wells). The plate was then incubated at room temperature for 15 min. An equal volume (20 μL) of 100 μM ATP, 300 nM dT50 (single-stranded DNA (ssDNA) containing 50 thymine bases), 300 μM NADH, 6 mM PEP, 10 U/mL lactate dehydrogenase and U/mL pyruvate kinase in assay buffer was added to all the test wells. The plate was then centrifuged at 1000 rpm for 1 min. The reaction was monitored for 30 min by measuring absorbance (λ=340 nm) in a Tecan Spark multimode plate reader every minute. The high control (DMSO with enzyme) with low absorbance intensity represents no inhibition of ATPase reaction while the low control (DMSO with buffer) with high absorbance intensity represents full inhibition of ATPase activity. Slope of the reaction progress curves were used to calculate the rate of ATP hydrolysis. The rates were used to determine the percent inhibition using a four-parameter inhibition model to generate IC50, Hill slope and max inhibition.

pIC50: −log10 of the molar value.

Sequence of Polθ theta (1-899) (hPolQ) (O75417 1-899): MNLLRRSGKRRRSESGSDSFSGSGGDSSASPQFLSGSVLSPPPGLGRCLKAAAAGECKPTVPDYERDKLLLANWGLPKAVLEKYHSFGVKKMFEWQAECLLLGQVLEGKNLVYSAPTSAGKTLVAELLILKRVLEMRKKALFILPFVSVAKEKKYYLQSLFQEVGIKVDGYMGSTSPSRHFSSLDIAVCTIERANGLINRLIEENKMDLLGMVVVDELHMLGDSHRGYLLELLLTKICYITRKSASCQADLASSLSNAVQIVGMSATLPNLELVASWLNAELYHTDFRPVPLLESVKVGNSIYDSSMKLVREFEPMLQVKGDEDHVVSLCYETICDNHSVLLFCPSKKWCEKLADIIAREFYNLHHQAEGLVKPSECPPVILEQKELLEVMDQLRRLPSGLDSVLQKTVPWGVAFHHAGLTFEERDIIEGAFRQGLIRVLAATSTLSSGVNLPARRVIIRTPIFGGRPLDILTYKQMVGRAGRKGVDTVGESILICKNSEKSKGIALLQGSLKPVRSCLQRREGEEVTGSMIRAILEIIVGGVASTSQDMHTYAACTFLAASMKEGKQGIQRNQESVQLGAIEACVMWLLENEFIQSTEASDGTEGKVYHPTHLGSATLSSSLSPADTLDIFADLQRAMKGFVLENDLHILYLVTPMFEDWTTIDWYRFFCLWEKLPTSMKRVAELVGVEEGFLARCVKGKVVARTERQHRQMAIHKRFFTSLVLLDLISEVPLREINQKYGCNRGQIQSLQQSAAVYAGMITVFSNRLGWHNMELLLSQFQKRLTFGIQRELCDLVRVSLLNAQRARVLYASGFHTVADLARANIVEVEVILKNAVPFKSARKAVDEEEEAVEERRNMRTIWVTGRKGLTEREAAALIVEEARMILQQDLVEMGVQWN

In the case of `COc1cnc(Cl)cc1-c1cc(C)ncc1C(=O)Nc1nnc(OC[C@@H]2CCC[C@H]2O)s1` (single isomer, unassigned) [Example 255, 2′-chloro-N-(5-((2-hydroxycyclopentyl)methoxy)-1,3,4-thiadiazol-2-yl)-5′-methoxy-6-methyl-(4,4′-bipyridine)-3-carboxamide], the pIC50 (in general, the IC50 on a negative log10 scale, so that one unit is a factor of ten) is no less than 6.70. For the compound `COc1cnc(Cl)cc1-c1cc(C)ncc1C(=O)Nc1nnc(OC[C@H]2CCC[C@@H]2O)s1` (single isomer, unassigned) [Example 256, 2′-chloro-N-(5-((2-hydroxycyclopentyl)methoxy)-1,3,4-thiadiazol-2-yl)-5′-methoxy-6-methyl-(4,4′-bipyridine)-3-carboxamide], the pIC50 is no less than 6.70. Under `Cc1cc(-c2cc(Cl)ncc2OC(F)F)c(C(=O)Nc2nnc(OC[C@H]3CCOC3)s2)cn1` (single isomer, unassigned) [Example 257] stands no less than 6.70; under `Cc1cc(-c2cc(Cl)ncc2OC(F)F)c(C(=O)Nc2nnc(OC[C@@H]3CCOC3)s2)cn1` (single isomer, unassigned) [Example 258], no less than 6.70; under `COc1cnc(Cl)cc1-c1cc(C)ncc1C(=O)Nc1nnc(OC[C@@]2(F)CCOC2)s1` (single isomer, unassigned) [Example 263], no less than 6.70. With `COc1cnc(Cl)cc1-c1cc(C)ncc1C(=O)Nc1nnc(OC[C@]2(F)CCOC2)s1` (single isomer, unassigned) [Example 264], the pIC50 is no less than 6.70.

Consider `COc1cnc(Cl)cc1-c1cc(C)ncc1C(=O)Nc1nnc(OC[C@@H]2COC[C@@H]2C)s1` (single isomer, unassigned) [Example 265], for which the negative-log IC50 (pIC50) was no less than 6.70. Under `COc1cnc(Cl)cc1-c1cc(C)ncc1C(=O)Nc1nnc(OC[C@@H]2COC[C@H]2C)s1` (single isomer, unassigned) [Example 266] stands no less than 6.70.

As to `COc1cnc(Cl)cc1-c1cc(C)ncc1C(=O)Nc1nnc(OC[C@H]2COC[C@H]2C)s1` (single isomer, unassigned) [Example 267], the negative-log IC50 (pIC50) is no less than 6.70. In the case of `COc1cnc(Cl)cc1-c1cc(C)ncc1C(=O)Nc1nnc(OC[C@H]2COC[C@@H]2C)s1` (single isomer, unassigned) [Example 268] it was no less than 6.70; in that of `COc1cnc(Cl)cc1-c1cc(C)ncc1C(=O)Nc1nnc(OCC2CCOC2)s1` (stereo in doubt) [Example 170, (R)-2′-chloro-5′-methoxy-6-methyl-N-(5-((tetrahydrofuran-3-yl)methoxy)-1,3,4-thiadiazol-2-yl)-(4,4′-bipyridine)-3-carboxamide], no less than 6.70; in that of `COc1cnc(Cl)cc1-c1cc(C)ncc1C(=O)Nc1nnc(OCC2CCOC2)s1` (stereo in doubt) [Example 171, (S)-2′-chloro-5′-methoxy-6-methyl-N-(5-((tetrahydrofuran-3-yl)methoxy)-1,3,4-thiadiazol-2-yl)-(4,4′-bipyridine)-3-carboxamide], no less than 6.70. In the case of `COc1cnc(Cl)c(F)c1-c1cc(C)ncc1C(=O)Nc1nnc(OCC2CCOC2)s1` (stereo in doubt) [Example 183, 2′-chloro-3′-fluoro-5′-methoxy-6-methyl-N-(5-(((R)-tetrahydrofuran-3-yl)methoxy)-1,3,4-thiadiazol-2-yl)-(4,4′-bipyridine)-3-carboxamide] it was no less than 6.70; in that of `COc1cnc(Cl)c(F)c1-c1cc(C)ncc1C(=O)Nc1nnc(OCC2CCOC2)s1` (stereo in doubt) [Example 184, 2′-chloro-3′-fluoro-5′-methoxy-6-methyl-N-(5-(((S)-tetrahydrofuran-3-yl)methoxy)-1,3,4-thiadiazol-2-yl)-(4,4′-bipyridine)-3-carboxamide], no less than 6.70. Under `COc1cnc(Cl)cc1-c1cc(C)ncc1C(=O)Nc1nnc(OCC2COC(C)(C)C2)s1` (stereo in doubt) [Example 188, (R)-2′-chloro-N-(5-((5,5-dimethyltetrahydrofuran-3-yl)methoxy)-1,3,4-thiadiazol-2-yl)-5′-methoxy-6-methyl-(4,4′-bipyridine)-3-carboxamide] stands no less than 6.70. Turning to `COc1cnc(Cl)cc1-c1cc(C)ncc1C(=O)Nc1nnc(OCC2COC(C)(C)C2)s1` (stereo in doubt) [Example 189, (S)-2′-chloro-N-(5-((5,5-dimethyltetrahydrofuran-3-yl)methoxy)-1,3,4-thiadiazol-2-yl)-5′-methoxy-6-methyl-(4,4′-bipyridine)-3-carboxamide], the negative logarithm of the IC50 (pIC50) was no less than 6.70. As to `COc1cnc(Cl)cc1-c1cc(C)ncc1C(=O)Nc1nnc(OC[C@H]2C[C@@H]2F)s1` (stereo in doubt) [Example 207, 2′-chloro-N-(5-(((1R,2S)-2-fluorocyclopropyl)methoxy)-1,3,4-thiadiazol-2-yl)-5′-methoxy-6-methyl-(4,4′-bipyridine)-3-carboxamide], the pIC50 is no less than 6.70. As for `COc1ccccc1-c1cc(C)ncc1C(=O)Nc1nnc(OCc2cccc(CO)n2)s1` [Example 6, N-(5-((6-(hydroxymethyl)pyridin-2-yl)methoxy)-1,3,4-thiadiazol-2-yl)-4-(2-methoxyphenyl)-6-methylpyridine-3-carboxamide], the pIC50 is no less than 6.70.

Consider `COc1ccccc1-c1cc(C)ncc1C(=O)Nc1nnc(OCc2ccc(C3(CO)CC3)cn2)s1` [Example 7, N-(5-((5-(1-(hydroxymethyl)cyclopropyl)pyridin-2-yl)methoxy)-1,3,4-thiadiazol-2-yl)-4-(2-methoxyphenyl)-6-methylnicotinamide], for which the pIC50 is no less than 6.70.

As to `COc1cnc(Cl)cc1-c1cc(C)ncc1C(=O)Nc1nnc(OCc2ccc(Cl)cn2)s1` [Example 8, 2′-chloro-N-(5-((5-chloropyridin-2-yl)methoxy)-1,3,4-thiadiazol-2-yl)-5′-methoxy-6-methyl-[4,4′-bipyridine]-3-carboxamide], the pIC50 was no less than 6.70. Under `COc1ccccc1-c1nc2cccnc2cc1C(=O)Nc1nnc(OCc2ccc(Cl)cn2)s1` [Example 9, N-(5-((5-chloropyridin-2-yl)methoxy)-1,3,4-thiadiazol-2-yl)-2-(2-methoxyphenyl)-1,5-naphthyridine-3-carboxamide] stands 5.00 to 6.00. Under `COc1ccccc1-c1cc(C)ncc1C(=O)Nc1nnc(OCc2nccc3[nH]ncc23)s1` [Example 10, N-(5-((1H-pyrazolo(4,3-c)pyridin-4-yl)methoxy)-1,3,4-thiadiazol-2-yl)-4-(2-methoxyphenyl)-6-methylnicotinamide] stands 6.00 to 6.30; under `COc1ccccc1-c1cc(C)ncc1C(=O)Nc1nnc(O[C@@H](C)c2ccc(Cl)cn2)s1` [Example 11, (S)—N-(5-(1-(5-chloropyridin-2-yl)ethoxy)-1,3,4-thiadiazol-2-yl)-4-(2-methoxyphenyl)-6-methylnicotinamide], no less than 6.70; under `COc1ccccc1-c1cc(C)ncc1C(=O)Nc1nnc(O[C@H](C)c2ccc(Cl)cn2)s1` [Example 12, (R)—N-(5-(1-(5-chloropyridin-2-yl)ethoxy)-1,3,4-thiadiazol-2-yl)-4-(2-methoxyphenyl)-6-methylnicotinamide], 5.00 to 6.00. Under `COc1ccc(F)cc1-c1cc(C)ncc1C(=O)Nc1nnc(OCc2ccc(Cl)cn2)s1` [Example 13, N-(5-((5-chloropyridin-2-yl)methoxy)-1,3,4-thiadiazol-2-yl)-4-(5-fluoro-2-methoxyphenyl)-6-methylnicotinamide] stands no less than 6.70. With `COc1cccc(F)c1-c1cc(C)ncc1C(=O)Nc1nnc(OCc2ccc(CO)cn2)s1` [Example 14, 4-(2-fluoro-6-methoxyphenyl)-N-(5-((5-(hydroxymethyl)pyridin-2-yl)methoxy)-1,3,4-thiadiazol-2-yl)-6-methylpyridine-3-carboxamide], the negative logarithm of the IC50 (pIC50) is no less than 6.70. For `COc1cccc(F)c1-c1cc(C)ncc1C(=O)Nc1nnc(OCc2ccn(C)n2)s1` [Example 15, 4-(2-fluoro-6-methoxyphenyl)-6-methyl-N-(5-((1-methylpyrazol-3-yl)methoxy)-1,3,4-thiadiazol-2-yl)pyridine-3-carboxamide], the pIC50 was no less than 6.70. Under `COc1c(F)cccc1-c1cc(C)ncc1C(=O)Nc1nnc(OCc2ccc(Cl)cn2)s1` [Example 16, N-(5-((5-chloropyridin-2-yl)methoxy)-1,3,4-thiadiazol-2-yl)-4-(3-fluoro-2-methoxyphenyl)-6-methylnicotinamide] stands no less than 6.70; under `Cc1cc(-c2ccccc2OC(F)F)c(C(=O)Nc2nnc(OCc3ccc(CO)cn3)s2)cn1` [Example 17, 4-(2-(difluoromethoxy)phenyl)-N-(5-((5-(hydroxymethyl)pyridin-2-yl)methoxy)-1,3,4-thiadiazol-2-yl)-6-methylpyridine-3-carboxamide], no less than 6.70; under `Cc1cc(C2CCOCC2)c(C(=O)Nc2nnc(OCc3ccc(Cl)cn3)s2)cn1` [Example 18, N-(5-((5-chloropyridin-2-yl)methoxy)-1,3,4-thiadiazol-2-yl)-6-methyl-4-(tetrahydro-2H-pyran-4-yl)nicotinamide], 5.00 to 6.00.

Values taken from US20250325552A1, “SUBSTITUTED THIADIAZOLYL DERIVATIVES AS DNA POLYMERASE THETA INHIBITORS” (IDEAYA Biosciences, Inc., priority 2020, published 2025).
